Results as given in patent publication US8426408B2, “Pyrimidine inhibitors of kinases” (AbbVie Inc., priority 2009, dated 2013).

Target: KDR (Homo sapiens, UniProt P35968)
Experiment: KDR cellular assay (KDR receptor phosphorylation ELISA)
Type: cell-based
Parameters: expressed in transfected cells; host or cells: 3T3 (embryonic mouse) cells
Settings: KDR transfected 3T3 (embryonic mouse) cells, VEGF stimulated; read-out: IC50 inhibition of KDR phosphorylation
Method in brief: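 Phospho-KDR measured by capture ELISA (anti-KDR coat, biotinylated detection, streptavidin-HRP, 450 nm) in lysates of KDR-expressing 3T3 mouse fibroblasts. Cells saw compound 20 min at 37° C before 10 min VEGF challenge (100 ng/ml solution); IC50 from non-linear regression of half-log dose series.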

Chain of KDR (P35968 20-1356): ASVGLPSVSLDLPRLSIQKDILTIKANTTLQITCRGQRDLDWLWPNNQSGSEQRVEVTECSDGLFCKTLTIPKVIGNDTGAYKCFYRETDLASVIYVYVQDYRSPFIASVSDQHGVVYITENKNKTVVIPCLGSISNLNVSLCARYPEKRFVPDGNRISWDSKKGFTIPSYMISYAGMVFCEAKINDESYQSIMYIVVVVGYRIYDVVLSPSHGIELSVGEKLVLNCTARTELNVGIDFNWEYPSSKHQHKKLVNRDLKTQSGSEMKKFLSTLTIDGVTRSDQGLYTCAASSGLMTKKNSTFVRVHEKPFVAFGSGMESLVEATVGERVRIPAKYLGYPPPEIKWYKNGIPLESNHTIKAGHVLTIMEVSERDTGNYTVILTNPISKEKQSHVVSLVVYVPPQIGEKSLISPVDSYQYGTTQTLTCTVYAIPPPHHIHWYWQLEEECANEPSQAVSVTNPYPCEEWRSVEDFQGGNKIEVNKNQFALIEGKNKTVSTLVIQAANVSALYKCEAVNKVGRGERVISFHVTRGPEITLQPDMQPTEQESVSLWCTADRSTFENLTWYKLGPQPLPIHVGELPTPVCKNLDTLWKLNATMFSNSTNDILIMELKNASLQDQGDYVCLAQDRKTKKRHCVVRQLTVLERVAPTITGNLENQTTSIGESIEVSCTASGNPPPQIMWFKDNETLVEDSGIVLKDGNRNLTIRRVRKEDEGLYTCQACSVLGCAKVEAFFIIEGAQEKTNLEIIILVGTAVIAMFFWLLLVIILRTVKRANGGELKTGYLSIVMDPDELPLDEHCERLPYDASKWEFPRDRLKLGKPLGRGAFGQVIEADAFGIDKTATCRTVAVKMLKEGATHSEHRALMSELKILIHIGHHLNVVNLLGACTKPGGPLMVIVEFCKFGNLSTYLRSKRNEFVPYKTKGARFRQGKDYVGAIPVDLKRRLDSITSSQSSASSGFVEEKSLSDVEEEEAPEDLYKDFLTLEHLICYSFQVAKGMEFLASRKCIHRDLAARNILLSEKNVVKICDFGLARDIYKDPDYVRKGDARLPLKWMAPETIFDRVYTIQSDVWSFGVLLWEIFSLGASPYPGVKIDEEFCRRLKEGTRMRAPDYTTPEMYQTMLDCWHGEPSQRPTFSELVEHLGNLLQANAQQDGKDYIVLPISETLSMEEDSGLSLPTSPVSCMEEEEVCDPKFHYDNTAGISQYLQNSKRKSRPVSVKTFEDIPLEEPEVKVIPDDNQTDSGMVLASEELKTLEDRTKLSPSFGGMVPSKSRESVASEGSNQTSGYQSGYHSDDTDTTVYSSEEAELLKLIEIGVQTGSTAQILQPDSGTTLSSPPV

Row | SMILES | IC50
1 | Cn1cc(Nc2ncc(C(F)(F)F)c(N[C@@H]3[C@H](C(N)=O)[C@H]4C=C[C@@H]3C4)n2)cn1.Cn1cc(Nc2ncc(C(F)(F)F)c(N[C@H]3[C@@H](C(N)=O)[C@@H]4C=C[C@H]3C4)n2)cn1 (mixture of isomers) [Example 10, (1S,2S,3R,4R)-3-{[2-[(1-methyl-1H-pyrazol-4-yl)amino]-5-(trifluoromethyl)pyrimidin-4-yl]amino}bicyclo[2.2.1]hept-5-ene-2-carboxamide and (1R,2R,3S,4S)-3-{[2-[(1-methyl-1H-pyrazol-4-yl)amino]-5-(trifluoromethyl)pyrimidin-4-yl]amino}bicyclo[2.2.1]hept-5-ene-2-carboxamide] | < 0.1 µM
2 | CC(O)Cn1cc(Nc2ncc(C(F)(F)F)c(NC3C4C=CC(C4)C3C(N)=O)n2)cn1 (mixture of isomers) [Example 19, (1R,2R,3S,4S)-3-{[2-({1-[(2R)-2-hydroxypropyl]-1H-pyrazol-4-yl}amino)-5-(trifluoromethyl)pyrimidin-4-yl]amino}bicyclo[2.2.1]hept-5-ene-2-carboxamide and (1S,2S,3R,4R)-3-{[2-({1-[(2R)-2-hydroxypropyl]-1H-pyrazol-4-yl}amino)-5-(trifluoromethyl)pyrimidin-4-yl]amino}bicyclo[2.2.1]hept-5-ene-2-carboxamide] | < 0.1 µM
3 | Cn1cc(Nc2ncc(C(F)(F)F)c(N[C@@H]3[C@@H]4CC[C@@H](C4)[C@@H]3C(N)=O)n2)cn1.Cn1cc(Nc2ncc(C(F)(F)F)c(N[C@H]3[C@H]4CC[C@H](C4)[C@H]3C(N)=O)n2)cn1 (mixture of isomers) [Example 20, (1S,2S,3R,4R)-3-{[2-[(1-methyl-1H-pyrazol-4-yl)amino]-5-(trifluoromethyl)pyrimidin-4-yl]amino}bicyclo[2.2.1]heptane-2-carboxamide and (1R,2R,3S,4S)-3-{[2-[(1-methyl-1H-pyrazol-4-yl)amino]-5-(trifluoromethyl)pyrimidin-4-yl]amino}bicyclo[2.2.1]heptane-2-carboxamide] | < 0.1 µM
4 | CC(O)Cn1cc(Nc2ncc(C(F)(F)F)c(NC3C4CCC(C4)C3C(N)=O)n2)cn1 (mixture of isomers) [Example 21, (1S,2R,3S,4R)-3-{[2-({1-[(2R)-2-hydroxypropyl]-1H-pyrazol-4-yl}amino)-5-(trifluoromethyl)pyrimidin-4-yl]amino}bicyclo[2.2.1]heptane-2-carboxamide and (1R,2S,3R,4S)-3-{[2-({1-[(2R)-2-hydroxypropyl]-1H-pyrazol-4-yl}amino)-5-(trifluoromethyl)pyrimidin-4-yl]amino}bicyclo[2.2.1]heptane-2-carboxamide] | 0.1 to 1 µM

More lines, now with the values ahead:

Row | IC50 | SMILES
5 | < 0.1 µM | CCn1cc(Nc2ncc(C(F)(F)F)c(N[C@@H]3[C@H](C(N)=O)[C@H]4C=C[C@@H]3C4)n2)cn1.CCn1cc(Nc2ncc(C(F)(F)F)c(N[C@H]3[C@@H](C(N)=O)[C@@H]4C=C[C@H]3C4)n2)cn1 (mixture of isomers) [Example 22, (1S,2S,3R,4R)-3-{[2-[(1-ethyl-1H-pyrazol-4-yl)amino]-5-(trifluoromethyl)pyrimidin-4-yl]amino}bicyclo[2.2.1]hept-5-ene-2-carboxamide and (1R,2R,3S,4S)-3-{[2-[(1-ethyl-1H-pyrazol-4-yl)amino]-5-(trifluoromethyl)pyrimidin-4-yl]amino}bicyclo[2.2.1]hept-5-ene-2-carboxamide]
6 | < 0.1 µM | CCn1cc(Nc2ncc(C(F)(F)F)c(N[C@@H]3[C@H]4CC[C@H](C4)[C@@H]3C(N)=O)n2)cn1.CCn1cc(Nc2ncc(C(F)(F)F)c(N[C@H]3[C@@H]4CC[C@@H](C4)[C@H]3C(N)=O)n2)cn1 (mixture of isomers) [Example 24, (1R,2S,3R,4S)-3-{[2-[(1-ethyl-1H-pyrazol-4-yl)amino]-5-(trifluoromethyl)pyrimidin-4-yl]amino}bicyclo[2.2.1]heptane-2-carboxamide and (1S,2R,3S,4R)-3-{[2-[(1-ethyl-1H-pyrazol-4-yl)amino]-5-(trifluoromethyl)pyrimidin-4-yl]amino}bicyclo[2.2.1]heptane-2-carboxamide]
7 | < 0.1 µM | CCn1cc(Nc2ncc(Br)c(N[C@@H]3[C@H](C(N)=O)[C@H]4C=C[C@@H]3C4)n2)cn1.CCn1cc(Nc2ncc(Br)c(N[C@H]3[C@@H](C(N)=O)[C@@H]4C=C[C@H]3C4)n2)cn1 (mixture of isomers) [Example 31, (1S,2S,3R,4R)-3-({5-bromo-2-[(1-ethyl-1H-pyrazol-4-yl)amino]pyrimidin-4-yl}amino)bicyclo[2.2.1]hept-5-ene-2-carboxamide and (1R,2R,3S,4S)-3-({5-bromo-2-[(1-ethyl-1H-pyrazol-4-yl)amino]pyrimidin-4-yl}amino)bicyclo[2.2.1]hept-5-ene-2-carboxamide]
8 | 0.1 to 1 µM | Cn1cc(Nc2ncc(Cl)c(N[C@@H]3[C@@H]4CC[C@@H](C4)[C@@H]3C(N)=O)n2)cn1.Cn1cc(Nc2ncc(Cl)c(N[C@H]3[C@H]4CC[C@H](C4)[C@H]3C(N)=O)n2)cn1 (mixture of isomers) [Example 113, (1R,2R,3S,4S)-3-({5-chloro-2-[(1-methyl-1H-pyrazol-4-yl)amino]pyrimidin-4-yl}amino)bicyclo[2.2.1]heptane-2-carboxamide and (1S,2S,3R,4R)-3-({5-chloro-2-[(1-methyl-1H-pyrazol-4-yl)amino]pyrimidin-4-yl}amino)bicyclo[2.2.1]heptane-2-carboxamide]
9 | 0.1 to 1 µM | CCn1cc(Nc2ncc(Cl)c(N[C@@H]3[C@@H]4CC[C@@H](C4)[C@@H]3C(N)=O)n2)cn1.CCn1cc(Nc2ncc(Cl)c(N[C@H]3[C@H]4CC[C@H](C4)[C@H]3C(N)=O)n2)cn1 (mixture of isomers) [Example 114, (1R,2R,3S,4S)-3-({5-chloro-2-[(1-ethyl-1H-pyrazol-4-yl)amino]pyrimidin-4-yl}amino)bicyclo[2.2.1]heptane-2-carboxamide and (1S,2S,3R,4R)-3-({5-chloro-2-[(1-ethyl-1H-pyrazol-4-yl)amino]pyrimidin-4-yl}amino)bicyclo[2.2.1]heptane-2-carboxamide]
10 | 0.1 to 1 µM | CCn1cc(Nc2ncc(Cl)c(N[C@@H]3[C@H](C(N)=O)[C@@H]4C=C[C@H]3C4)n2)cn1.CCn1cc(Nc2ncc(Cl)c(N[C@H]3[C@@H](C(N)=O)[C@H]4C=C[C@@H]3C4)n2)cn1 (mixture of isomers) [Example 121, (1S,2R,3S,4R)-3-({5-chloro-2-[(1-ethyl-1H-pyrazol-4-yl)amino]pyrimidin-4-yl}amino)bicyclo[2.2.1]hept-5-ene-2-carboxamide and (1R,2S,3R,4S)-3-({5-chloro-2-[(1-ethyl-1H-pyrazol-4-yl)amino]pyrimidin-4-yl}amino)bicyclo[2.2.1]hept-5-ene-2-carboxamide]
11 | 0.1 to 1 µM | NC(=O)[C@@H]1CCC[C@@H]1Nc1nc(Nc2cnn(C3CCNCC3)c2)ncc1Cl.NC(=O)[C@H]1CCC[C@H]1Nc1nc(Nc2cnn(C3CCNCC3)c2)ncc1Cl (mixture of isomers) [Example 136, (1S,2R)-2-[(5-chloro-2-{[1-(piperidin-4-yl)-1H-pyrazol-4-yl]amino}pyrimidin-4-yl)amino]cyclopentanecarboxamide and (1R,2S)-2-[(5-chloro-2-{[1-(piperidin-4-yl)-1H-pyrazol-4-yl]amino}pyrimidin-4-yl)amino]cyclopentanecarboxamide]
